Test results published in patent US7973047B2, “Beta-Secretase modulators and methods of use” (Amgen Inc., priority 2010, dated 2011).
Like-named read-outs stand apart in the source and are kept apart here.

System: Aβ40 in conditioned medium of cells stably expressing Amyloid Precursor Protein (APP)
Assay: BACE cell-based assay: Aβ40 in conditioned medium by sandwich ELISA
Settings: unit inferred, read-out: Cell Assay
Protocol: The cell-based assay measures inhibition or reduction of Aβ40 in conditioned medium of test compound treated cells expressing amyloid precursor protein.
Cells stably expressing Amyloid Precursor Protein (APP) were plated at a density of 40K cells/well in 96 well plates (Costar). The cells were cultivated for 24 hours at 37° C. and 5% CO2 in DMEM supplemented with 10% FBS. The test compounds were then added to cells in 10-point dose response concentrations with the starting concentration being either 100 μM or 10 μM. The compounds were diluted from stock solutions in DMSO and the final DMSO concentration of the test compounds on cells was 0.1%. After 24 h of incubation with the test compounds the supernatant conditioned media was collected and the Aβ40 levels were determined using a sandwich ELISA. The ICso of the compound was calculated from the percent of control or percent inhibition of Aβ40 as a function of the concentration of the test compound.
The sandwich ELISA to detect Aβ40 was performed in 96 well microtiter plates, which were pre-treated with goat anti-rabbit IgG (Pierce). The capture and detecting antibody pair that were used to detect Aβ40 from cell supernatants were affinity purified pAb40 (Biosource) and biotinylated 6E10 (Signet Labs Inc.), respectively. The optimal concentration for the pAb40 antibody was 3 μg/ml in Superblock/TBS (Pierce) that was supplemented with 0.05% Tween 20 (Sigma).
Cellular supernatants were incubated with the capture antibody for 3 h at 4° C., followed by 3 wash steps in TBS-tween (0.05%). The detecting antibody incubation was for 2 h at 4° C., again followed by the wash steps as described previously. The final readout of the ELISA is Time-Resolved Fluorescence (counts per minute) using Delfia reagents Streptavidin-Europium and Enhancement solutions (Perkin Elmer) and the Victor 2 multilabel counter (Perkin Elmer).

[1] = cell based assay data of Table 4

IC50 [1] [nM] | IC50 (cell based assay data, Table 4) [nM] | SMILES
1260 |  | CC(=O)N[C@@H](Cc1ccc(F)cc1)[C@H](O)CN[C@H]1CC2(CCC2)Oc2ncc([C@H](F)C(C)C)cc21 [compound 552, N-((1S,2R)-3-(((4′S)-6′-((1R)-1-fluoro-2-methylpropyl)-3′,4′-dihydrospiro[cyclobutane-1,2′-pyrano[2,3-b]pyridin]-4′-yl)amino)-1-((4-fluorophenyl)methyl)-2-hydroxypropyl)acetamide]
14 |  | CC(=O)N[C@@H](Cc1ccc(F)cc1)[C@H](O)CN[C@H]1CC2(CCC2)Oc2c1cc(CC(C)(C)C)nc2NC1CC1 [compound 586]
177 |  | CC(=O)N[C@@H](CC(C)C)[C@H](O)CN[C@H]1CC2(CCC2)Oc2ncc(CC(C)(C)C)cc21 [compound 538, N-((1S)-1-((1R)-2-(((4′S)-6′-(2,2-dimethylpropyl)-3′,4′-dihydrospiro[cyclobutane-1,2′-pyrano[2,3-b]pyridin]-4′-yl)amino)-1-hydroxyethyl)-3-methylbutyl)acetamide]
 | 1650 | CC(=O)N[C@@H](Cc1cc(F)cc(F)c1)[C@H](O)CN[C@H]1CC2(CCC2)Oc2ccc(-c3ccn(C)n3)cc21 [compound 784]
433 |  | CC#CC[C@H](NC(C)=O)[C@H](O)CN[C@H]1CC2(CCC2)Oc2ncc(CC(C)(C)C)cc21 [compound 705, N-((1S)-1-((1R)-2-(((4′S)-6′-(2,2-dimethylpropyl)-3′,4′-dihydrospiro[cyclobutane-1,2′-pyrano[2,3-b]pyridin]-4′-yl)amino)-1-hydroxyethyl)-3-pentyn-1-yl)acetamide]
 | 3330 | C=C[C@H](NC(C)=O)[C@H](O)CN[C@H]1CC2(CCC2)Oc2ncc(CC(C)(C)C)cc21 [compound 740, N-((1S)-1-((1R)-2-(((4′S)-6′-(2,2-dimethylpropyl)-3′,4′-dihydrospiro[cyclobutane-1,2′-pyrano[2,3-b]pyridin]-4′-yl)amino)-1-hydroxyethyl)-2-propen-1-yl)acetamide]
 | 11.2 | CC(=O)N[C@@H](Cc1cc(F)cc(F)c1)[C@H](O)CN[C@H]1CC2(CCC2)Oc2nc(F)c(CC(C)C)cc21 [compound 853]
12.6 |  | CC(=O)N[C@@H](Cc1ccc(Cl)cc1)[C@H](O)CN[C@H]1CC2(CCC2)Oc2ncc(CC(C)(C)C)cc21 [compound 707]
 | 206 | CC(=O)N[C@@H](Cc1cccc(F)c1F)[C@H](O)CN[C@H]1CC2(CCC2)Oc2nc(F)c(CC(C)C)cc21 [compound 856]
24.2 |  | CC(=O)N[C@@H](Cc1cc(F)cc(F)c1)[C@H](O)CN[C@H]1CC2(CCC2)Oc2c1cc(CC(C)(C)C)nc2OC(C)C [compound 612, N-((1S,2R)-1-((3,5-difluorophenyl)methyl)-3-(((4′S)-6′-(2,2-dimethylpropyl)-8′-((1-methylethyl)oxy)-3′,4′-dihydrospiro[cyclobutane-1,2′-pyrano[2,3-c]pyridin]-4′-yl)amino)-2-hydroxypropyl)acetamide]
2380 |  | [N-]=[N+]=NCC(=O)N[C@@H](Cc1ccccc1)[C@H](O)CN[C@H]1CC2(CCC2)Oc2ccc(Br)cc21 [compound 698]
2.07 |  | CC(=O)N[C@@H](Cc1cccc(F)c1)[C@H](O)CN[C@H]1CC2(CCC2)Oc2ncc([C@H](F)C(C)(C)C)cc21 [compound 678]
66.7 |  | CC(=O)N[C@@H](Cc1cccc(F)c1)[C@H](O)CN[C@@H]1CC2(CCC2)Oc2c1cc(CC(C)(C)C)nc2OC(C)C [compound 609]
272 |  | CC(=O)N[C@@H](Cc1ccc(F)cc1)[C@H](O)CN[C@H]1CC2(CCC2)Oc2ncc([C@@H](F)C(C)C)cc21 [compound 553]
105 |  | COC(=O)N[C@@H](Cc1ccccc1)[C@H](O)CN[C@H]1CC(C)(C)Cc2sc(CC(C)(C)C)cc21 [compound 655, methyl ((1S,2R)-3-(((4S)-2-(2,2-dimethylpropyl)-6,6-dimethyl-4,5,6,7-tetrahydro-1-benzothien-4-yl)amino)-2-hydroxy-1-(phenylmethyl)propyl)carbamate]
80.9 |  | CC(=O)N[C@@H](Cc1ccc(F)cc1)[C@H](O)CN[C@H]1CC2(CCC2)Oc2ncc(CC(C)(C)F)cc21 [compound 571]
 | 310 | CC(=O)N[C@@H](Cc1ccccc1)[C@H](O)CN[C@H]1CC2(CCC2)Oc2ccc(OC(C)C)cc21 [compound 823, N-((2S,3R)-3-hydroxy-4-((S)-6-isopropoxy-2,2-spirocyclobutyl-chroman-4-ylamino)-1-phenylbutan-2-yl)acetamide]
 | 11.3 | CNc1nc(CC(C)(C)C)cc2c1OC(C)(C)C[C@@H]2NC[C@@H](O)[C@H](Cc1ccc(F)c(F)c1)NC(C)=O [compound 760]

IC50 [1] [nM] | IC50 (cell based assay data, Table 4) [nM] | SMILES
4.61 |  | CC(=O)N[C@@H](Cc1ccccc1)[C@H](O)CN[C@H]1CC(C)(C)Oc2ncc(CC(C)(C)C)cc21 [compound 545]
38.2 |  | CC(=O)N[C@@H](Cc1ccc(F)cc1)[C@H](O)CN[C@H]1C[C@]2(CC[C@H]2C)Oc2ncc(CC(C)(C)C)cc21 [compound 623]
161 |  | CC(=O)N[C@@H](Cc1cc(F)cc(F)c1)[C@H](O)CN[C@@H]1CC2(CCC2)Oc2c1cc(CC(C)(C)C)nc2OC(C)C [compound 611]
 | 224 | CC(=O)N[C@@H](Cc1c(F)cc(F)cc1F)[C@H](O)CN[C@H]1CC2(CCC2)Oc2ncc(CC(C)C)cc21 [compound 815]
 | 489 | CC(=O)N[C@@H](Cc1cccc(F)c1)[C@H](O)CN[C@H]1CC2(CCC2)Oc2cc(F)c(-n3cccn3)cc21 [compound 807]
23.8 |  | CC(=O)N[C@@H](Cc1ccc(F)cc1)[C@H](O)CN[C@H]1C[C@]2(CCOC2)Oc2ncc(CC(C)(C)C)cc21 [compound 672]
 | 38.9 | CC(=O)N[C@@H](Cc1cccc(F)c1F)[C@H](O)CN[C@H]1C[C@]2(C[C@@H](C)C2)Oc2ncc(CC(C)(C)C)cc21 [compound 768, N-((1S,2R)-1-((2,3-difluorophenyl)methyl)-3-(((1r,3S,4′S)-6′-(2,2-dimethylpropyl)-3-methyl-3′,4′-dihydrospiro[cyclobutane-1,2′-pyrano[2,3-b]pyridin]-4′-yl)amino)-2-hydroxypropyl)acetamide]
 | 40.8 | C=CCC[C@H](NC(C)=O)[C@H](O)CN[C@H]1CC2(CCC2)Oc2ncc(CC(C)(C)C)cc21 [compound 715]
23.1 |  | CC(=O)N[C@@H](Cc1ccc(Cl)cc1)[C@H](O)CN[C@H]1CC2(CCC2)Oc2ncc([C@H](F)C(C)(C)C)cc21 [compound 680]
 | 88.2 | CC(=O)N[C@@H](Cc1cc(F)cc(F)c1)[C@H](O)CN[C@H]1CC2(CCC2)Oc2ccc(Br)cc21 [compound 774]
105 |  | CC(=O)N[C@@H](Cc1ccc(F)cc1)[C@H](O)CN[C@H]1CC2(CCC2)Nc2ccc(CC(C)(C)C)cc21 [compound 559, N-((1S,2R)-3-(((4′S)-6′-(2,2-dimethylpropyl)-3′,4′-dihydro-1′H-spiro[cyclobutane-1,2′-quinolin]-4′-yl)amino)-1-((4-fluorophenyl)methyl)-2-hydroxypropyl)acetamide]
52.9 |  | CC(=O)N[C@@H](Cc1cc2ccccc2o1)[C@H](O)CN[C@H]1CC2(CCC2)Oc2ncc(CC(C)(C)C)cc21 [compound 646, N-((1S,2R)-1-(1-benzofuran-2-ylmethyl)-3-(((4′S)-6′-(2,2-dimethylpropyl)-3′,4′-dihydrospiro[cyclobutane-1,2′-pyrano[2,3-b]pyridin]-4′-yl)amino)-2-hydroxypropyl)acetamide]
 | 5.7 | CC(=O)N[C@@H](Cc1ccc(F)cc1)[C@H](O)CN[C@H]1C[C@]2(C[C@H](C)C2)Oc2ncc(CC(C)(C)C)cc21 [compound 767, N-((1S,2R)-3-(((1s,3R,4′S)-6′-(2,2-dimethylpropyl)-3-methyl-3′,4′-dihydrospiro[cyclobutane-1,2′-pyrano[2,3-b]pyridin]-4′-yl)amino)-1-((4-fluorophenyl)methyl)-2-hydroxypropyl)acetamide]
5.29 |  | CCNc1nc(CC(C)(C)C)cc2c1OC1(CCC1)C[C@@H]2NC[C@@H](O)[C@H](Cc1ccc(F)cc1)NC(C)=O [compound 584]
5.49 |  | CC(=O)N[C@@H](Cc1cc(F)cc(F)c1)[C@H](O)CN[C@H]1CC(C)(C)Nc2ccc(CC(C)(C)C)cc21 [compound 693]
33.9 |  | CCc1cc(Br)c2c(c1)[C@@H](NC[C@@H](O)[C@H](Cc1cccc(C#N)c1)NC(C)=O)CC(C)(C)O2 [compound 529]
 | 195 | CC(=O)N[C@@H](CC1CC1C)[C@H](O)CN[C@H]1CC2(CCC2)Oc2ncc(CC(C)(C)C)cc21 (stereo partly drawn) [compound 723, N-((1S,2R)-3-(((4′S)-6′-(2,2-dimethylpropyl)-3′,4′-dihydrospiro[cyclobutane-1,2′-pyrano[2,3-b]pyridin]-4′-yl)amino)-2-hydroxy-1-((2-methylcyclopropyl)methyl)propyl)acetamide]
1.41 |  | CNc1nc(CC(C)(C)C)cc2c1OC1(CCC1)C[C@@H]2NC[C@@H](O)[C@H](Cc1cccc(F)c1)NC(C)=O [compound 590]
